In PubChem BioAssay (NCI):
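96-well plates; 48 h exposure; 5 concentrations. Endpoints by linear interpolation between flanking doses. Not reached: highest tested concentration assigned. GI50: concentration for 50% inhibition of growth. TGI: concentration producing complete growth inhibition.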

Key:
Experiment in all cases: DTP human tumour cell line panel, 48 h
[1] = system: UO-31 renal
[2] = system: HCC-2998 colon
[3] = system: SK-OV-3 ovarian
[4] = system: SF-268 CNS
[5] = system: U251 CNS
[6] = system: SK-MEL-28 melanoma
[7] = system: MDA-MB-231 breast
[8] = system: NCI-H460 lung
[9] = system: NCI-H522 lung
[10] = system: HL-60(TB) leukemia
[11] = system: HS 578T breast
[12] = system: 786-0 renal
[13] = system: SNB-19 CNS
[14] = system: CCRF-CEM leukemia
[15] = system: SR leukemia
[16] = system: PC-3 prostate
[17] = system: SK-MEL-2 melanoma
[18] = system: RPMI-8226 leukemia
[19] = system: ACHN renal
[20] = system: HCT-15 colon
[21] = system: MOLT-4 leukemia
[22] = system: HT29 colon
[23] = system: DU-145 prostate
[24] = system: SK-MEL-5 melanoma
[25] = system: A498 renal
[26] = system: NCI-H226 lung
[27] = system: RXF 393 renal
[28] = system: HCT-116 colon
[29] = system: T-47D breast
[30] = system: SF-539 CNS
[31] = system: MDA-MB-435
[32] = system: UACC-62 melanoma
[33] = system: NCI-H23 lung
[34] = system: HOP-62 NSCLC
[35] = system: COLO 205 colon
[36] = system: IGROV1 ovarian
[37] = system: OVCAR-4 ovarian
[38] = system: SF-295 CNS
[39] = system: UACC-257 melanoma
[40] = system: HOP-92 NSCLC
[41] = system: K-562 leukemia
[42] = system: OVCAR-5 ovarian
[43] = system: TK-10 renal
[44] = system: SNB-75 CNS
[45] = system: A549 NSCLC
[46] = system: SW-620 colon
[47] = system: MCF7 breast
[48] = system: BT-549 breast
[49] = system: OVCAR-8 ovarian
[50] = system: SN12C renal
[51] = system: M14 melanoma
[52] = system: LOX IMVI melanoma
[53] = system: KM12 colon
[54] = system: NCI/ADR-RES ovarian
[55] = system: OVCAR-3 ovarian
[56] = system: EKVX NSCLC
[57] = system: CAKI-1 renal

Compound: CCCn1cnc2c(c1=N)C(c1ccc(OC)cc1)c1sc3c(C)cccc3c1O2 (configuration not stated)
- GI50 [1]: 406 nM
- TGI [1]: 16.5 µM
- GI50 [2]: 886 nM
- TGI [2]: 4.91 µM
- GI50 [3]: 657 nM
- TGI [3]: 22.2 µM
- GI50 [4]: 787 nM
- TGI [4]: 14.9 µM
- GI50 [5]: 445 nM
- TGI [5]: 12.9 µM
- GI50 [6]: 3.34 µM
- TGI [6]: 21.6 µM
- GI50 [7]: 1150 nM
- TGI [7]: 15.9 µM
- GI50 [8]: 381 nM
- TGI [8]: 10.5 µM
- GI50 [9]: 409 nM
- TGI [9]: 7.59 µM
- GI50 [10]: 292 nM
- TGI [10]: 2680 nM
- GI50 [11]: 381 nM
- TGI [11]: 8.87 µM
- GI50 [12]: 523 nM
- TGI [12]: 14.4 µM
- GI50 [13]: 490 nM
- TGI [13]: 16 µM
- GI50 [14]: 355 nM
- GI50 [15]: 349 nM
- GI50 [16]: 415 nM
- TGI [16]: 16 µM
- GI50 [17]: 719 nM
- TGI [17]: 21 µM
- GI50 [18]: 369 nM
- TGI [18]: 4.45 µM
- GI50 [19]: 604 nM
- TGI [19]: 15.2 µM
- GI50 [20]: 408 nM
- TGI [20]: 8.68 µM
- GI50 [21]: 569 nM
- TGI [21]: 12.7 µM
- GI50 [22]: 557 nM
- TGI [22]: 13.7 µM
- GI50 [23]: 453 nM
- TGI [23]: 15.2 µM
- GI50 [24]: 411 nM
- TGI [24]: 12.5 µM
- GI50 [25]: 317 nM
- TGI [25]: 1030 nM
- GI50 [26]: 419 nM
- TGI [26]: 9.6 µM
- GI50 [27]: 215 nM
- TGI [27]: 603 nM
- GI50 [28]: 400 nM
- TGI [28]: 10.9 µM
- GI50 [29]: 527 nM
- TGI [29]: 30.4 µM
- GI50 [30]: 301 nM
- TGI [30]: 1270 nM
- GI50 [31]: 187 nM
- TGI [31]: 484 nM
- GI50 [32]: 439 nM
- TGI [32]: 15 µM
- GI50 [33]: 535 nM
- TGI [33]: 14.2 µM
- GI50 [34]: 406 nM
- TGI [34]: 16.7 µM
- GI50 [35]: 592 nM
- TGI [35]: 4.92 µM
- GI50 [36]: 472 nM
- TGI [36]: 13.9 µM
- GI50 [37]: 1610 nM
- TGI [37]: 20.7 µM
- GI50 [38]: 368 nM
- TGI [38]: 11.6 µM
- GI50 [39]: 12.9 µM
- TGI [39]: 35.5 µM
- GI50 [40]: 1180 nM
- TGI [40]: 16.6 µM
- GI50 [41]: 261 nM
- TGI [41]: 5.52 µM
- GI50 [42]: 1160 nM
- TGI [42]: 15 µM
- GI50 [43]: 8.09 µM
- TGI [43]: 33.9 µM
- GI50 [44]: 209 nM
- TGI [44]: 1700 nM
- GI50 [45]: 717 nM
- TGI [45]: 18.1 µM
- GI50 [46]: 517 nM
- TGI [46]: 17.3 µM
- GI50 [47]: 303 nM
- TGI [47]: 12.9 µM
- GI50 [48]: 1350 nM
- TGI [48]: 12.7 µM
- GI50 [49]: 564 nM
- TGI [49]: 18.8 µM
- GI50 [50]: 635 nM
- TGI [50]: 15.5 µM
- GI50 [51]: 401 nM
- TGI [51]: 12.5 µM
- GI50 [52]: 656 nM
- TGI [52]: 12.3 µM
- GI50 [53]: 474 nM
- TGI [53]: 12 µM
- GI50 [54]: 359 nM
- TGI [54]: 12.4 µM
- GI50 [55]: 379 nM
- TGI [55]: 5.92 µM
- GI50 [56]: 598 nM
- TGI [56]: 20.4 µM
- GI50 [57]: 208 nM
- TGI [57]: 15 µM
